Assay results as given in US4975372A, “Microbial transformation product of L-683,590” (Merck & Co., Inc., priority 1989, dated 1990).
Where “and” joins values, the source holds several entries; their conditions need not be identical. Identical values can stand only once. Entries after “also recorded” stand apart in the source; their conditions may differ. Like-named read-outs stand apart in the source and are kept apart here.

How the values were obtained:
[1] = reputed; EPO Publication No. 0184162; cited from earlier work
mouse T lymphocytes = test: T-cell proliferation assay (ionomycin plus PMA induced, tritiated thymidine uptake); assay type: cell-based, mouse (C57B1/6)
Procedure: The principle of this assay is to measure the proliferation of mouse T lymphocytes stimulated with the combination of ionomycin plus PMA. A positive sample in this assay will inhibit T-cell proliferation, as indicated by reduced tritiated thymidine uptake.
Purified L-685,487, as prepared by HPLC above, was dissolved in absolute ethanol at 1 mg/ml.
Spleens from C57B1/6 mice were taken under sterile conditions and gently dissociated in ice-cold RPMI 1640 culture medium (GIBCO, Grand Island, N.Y.) supplemented with 10% heat-inactivated fetal calf serum (GIBCO). Cells were pelleted by centrifugation at 1500 rpm for 8 minutes. Contaminating red cells were removed by treating the pellet with ammonium chloride lysing buffer (GIBCO) for 2 minutes at 4° C. Cold medium was added and cells were again centrifuged at 1500 rpm. for 8 minutes. T lymphocytes were then isolated by separation of the cell suspension on nylon wool columns as follows: Nylon wool columns were prepared by packing approximately 4 grams of washed and dried nylon wool into 20 ml plastic syringes. The columns were sterilized by autoclaving at 250° F. for 30 minutes. Nylon wool columns were wetted with warm (37° C.) culture medium and rinsed with the same medium. Washed spleen cells resuspended in warm medium were slowly applied to the nylon wool. The columns were then incubated in an upright position at 37° C. for 1 hour. Non-adherent T lymphocytes were eluted from the columns with warm culture medium and the cell suspensions were spun as above.
Purified T lymphocytes were resuspended at 2.5×10^5 cells/ml in complete culture medium composed of RPMI 1640 medium with 10% heat-inactivated fetal calf serum, […] glutamine, 1 mM sodium pyruvate, 2×10^-5 M 2-mercaptoethanol and 50 μg/ml gentamycin. Ionomycin was added at 250 ng/ml and PMA at 10 ng/ml. The cell suspension was immediately distributed into 96 well flat-bottom microculture plates (Costar) at 200 μl/well. The control, being the medium without test drug, and various below-indicated dilutions of the sample (above-describedpurified L-683,756) to be tested were then added in triplicate wells at 20 μl/well. L-679,934 was used as a standard. The culture plates were then incubated at 37° C. in a humidified atmosphere of 5% CO2 -95% air for 44 hours. The proliferation of T lymphocytes was assessed by measurement of tritiated thymidine incorporation. After 44 hours of culturing, the cells were pulse-labelled with 2 μ Ci/well of tritiated thymidine (NEN, Cambridge, Mass.). After another 4 hours of incubation, cultures were harvested on glass fiber filters using a multiple sample harvester. Radioactivity of filter discs corresponding to individual wells was measured by standard liquid scintillation counting methods (Betacounter). Mean counts per minute of replicate wells were calculated and the results expressed as percent inhibition of tritiated thymidine uptake (proliferation) as follows: [formula]

[2] = Solubility (physical characteristics); assay type: physicochemical; conditions: methanol

C=CC[C@@H]1/C=C(\C)C[C@H](C)C[C@H](OC)[C@H]2O[C@@](O)(C(=O)C(=O)N3CCCC[C@H]3C(=O)O[C@H](/C(C)=C/[C@@H]3CC[C@@H](O)[C@H](OC)C3)[C@H](C)[C@@H](O)CC1=O)[C@H](C)C[C@@H]2OC [FK-506]
effectiveness relative to cyclosporin [1]: 100 times

C=CC[C@@H]1/C=C(\C)C[C@H](C)C[C@H](OC)[C@H]2O[C@@](O)(C(=O)C(=O)N3CCCC[C@H]3C(=O)O[C@H](/C(C)=C/[C@@H]3CC[C@@H](O)[C@H](OC)C3)[C@H](C)[C@@H](O)CC1=O)[C@H](C)C[C@@H]2OC.O [L679,934, reference compound]
% inhibition, standard (mouse T lymphocytes; 10 ng/ml): 99%

CC[C@@H]1/C=C(\C)CC(C)C[C@H](OC)C(O)[C@@H]2CC(C)C(O)(O2)C(=O)C(=O)N2CCCC[C@H]2C(=O)O[C@H](/C(C)=C/[C@@H]2CC[C@@H](O)C(OC)C2)[C@H](C)C(O)CC1=O (stereo partly drawn) [L-685,487]
inhibition at 0.00058 µg/mL (mouse T lymphocytes; Mus musculus, T-lymphocyte, 0.58 ng/ml): 0% | inhibition at 0.00087 µg/mL (mouse T lymphocytes; Mus musculus, T-lymphocyte, 0.87 ng/ml): 0% | inhibition at 0.0013 µg/mL (mouse T lymphocytes; Mus musculus, T-lymphocyte, 1.3 ng/ml): 9% | inhibition at 0.0019 µg/mL (mouse T lymphocytes; Mus musculus, T-lymphocyte, 1.9 ng/ml): 10% | inhibition at 0.0029 µg/mL (mouse T lymphocytes; Mus musculus, T-lymphocyte, 2.9 ng/ml): 10% | inhibition at 0.0044 µg/mL (mouse T lymphocytes; Mus musculus, T-lymphocyte, 4.4 ng/ml): 39% | inhibition at 0.0066 µg/mL (mouse T lymphocytes; Mus musculus, T-lymphocyte, 6.6 ng/ml): 71% | inhibition at 0.0099 µg/mL (mouse T lymphocytes; Mus musculus, T-lymphocyte, 9.9 ng/ml): 88% | inhibition at 0.015 µg/mL (mouse T lymphocytes; Mus musculus, T-lymphocyte, 15.0 ng/ml): 92% | inhibition at 0.022 µg/mL (mouse T lymphocytes; Mus musculus, T-lymphocyte, 22.0 ng/ml): 98% | inhibition at 0.033 µg/mL (mouse T lymphocytes; Mus musculus, T-lymphocyte, 33.0 ng/ml): 99% | inhibition at 0.05 µg/mL (mouse T lymphocytes; Mus musculus, T-lymphocyte, 50.0 ng/ml): 99% | IC50 (mouse T lymphocytes; Mus musculus, T-lymphocyte, T-cell proliferation, 3H-thymidine pulse 4 hours, harvest at 48 hours, read-out: IC50): 0.0049 µg/mL and 6.3 nM | IC50 (mouse T lymphocytes; Mus musculus, T-lymphocyte, generally in the range, read-out: IC50, general range): 6 to 12 nM | Inhibition of proliferation upon addition of IL2 (mouse T lymphocytes; addition of 50 units/m of recombinant human IL2): Inhibition of proliferation was reversed | inhibition of T-cell activation (immunosuppressive activity) (mouse T lymphocytes; qualitative): positive inhibition of T-cell activation; also recorded: positive immunosuppressive activity | Solubility [2]: Solubility in methanol
